Source: BigSolDB 2.1

COc1c(C)c2c(c(O)c1C/C=C(\C)CCC(=O)OCCN1CCOCC1)C(=O)OC2
solubility (mole fraction)
Settings	278.15 K	283.15 K	288.15 K	293.15 K	298.15 K	303.15 K	308.15 K	313.15 K	318.15 K
in DMSO	–	–	–	0.0166	0.0214	0.0263	0.0322	0.0389	0.046
in ethanol	0.00352	0.00394	0.00449	0.00511	0.00581	0.00659	0.00749	0.00847	0.0095
in isopropanol	0.00538	0.00592	0.00664	0.00732	0.00821	0.0091	0.00998	0.011	0.0121
in propylene glycol	0.000349	0.000486	0.000633	0.00081	0.001	0.00122	0.00145	0.00172	0.00199
in water	2.62e-07	4.16e-07	6.62e-07	1.05e-06	1.55e-06	2.12e-06	2.84e-06	3.68e-06	4.51e-06
